In US9101627B2, “Pharmaceutical compositions containing bradykinin antagonists and hyaluronic acid, and uses thereof” (ISTITUTO LUSO FARMACO D'ITALIA S.P.A., priority 2007, dated 2015):

How the values were obtained:
[1] = system: experimental model of osteoarthritis induced by intra-articular injection of sodium monoiodoacetate (MIA); assay: MIA-induced osteoarthritis model, incapacitance test (weight imbalance between paws); assay type: in vivo; settings: rat; for time of maximal inhibitory effect after administration / reduction of the pain caused by osteoarthritis: 3 μg/25 μl i.a., single compound; for reduction of the pain caused by osteoarthritis: 7 days after MIA; for inhibitory effect at higher dose: 10 μg/25 μl i.a. versus 3 μg/25 μl; for duration of antinociceptive effect: single compound i.a.
Method: The activity of MEN16132, icatibant and hyaluronic acid was measured in an experimental model of osteoarthritis induced by intra-articular injection of sodium monoiodoacetate (MIA) which inhibits glycolysis in the chondrocytes, thus causing damage and death to those cells with consequent degeneration of the joint surface, in a very similar way to human osteoarthritis.
MIA (1 mg/25 μl) was injected into the intra-articular space of the right knee of the rat, while 25 μl of saline was administered to the left knee as internal control.
The administration of MIA causes pain, difficulty of walking and inability to bear weight on the paw corresponding to the treated knee; the weight of the body therefore falls mainly on the left paw, to an extent directly proportional to the pain perceived. This effect persists for many weeks. The imbalance in weight on the two weight-bearing paws, evaluated in a non-invasive way with the incapacitance test, measures the pain resulting from the joint damage (osteoarthritis) induced by MIA.
The purpose of this test was to evaluate the protective effect of bradykinin B2 receptor antagonists against experimental osteoarthritis, and to establish the effect of co-administration of hyaluronic acid.
Seven days after the treatment with MIA, the compounds under study were injected, and the test was repeated at various times to measure the painkilling effect and its duration.

[2] = system: patients with OA of the knee; settings: intra-articular, 3×500 μg injections one week apart; cited from earlier work
[3] = system: patients with symptomatic OA of the knee; settings: 58 patients, single intra-articular administration 90 μg/1 ml; cited from earlier work

Structure (SMILES)	time of maximal inhibitory effect after administration [1]	reduction of the pain caused by osteoarthritis [1]	inhibitory effect at higher dose [1]	duration of antinociceptive effect [1]	duration of analgesic response after the treatment [2]	side effects [2]	intensity of pain in the knee versus placebo [3]
Cc1cc(C)c2cccc(OCc3c(Cl)ccc(S(=O)(=O)NC4(C(=O)N5CCN(C(=O)[C@@H](N)CCC[N+](C)(C)C)CC5)CCOCC4)c3Cl)c2n1 [MEN16132, (4-(S)-Amino-5-(4-{4-[2,4-dichloro-3-(2,4-dimethyl-quinoline-8-yloxymethyl)-benzenesulphonylamino]-tetrahydro-pyran-4-carbonyl}-piperazin-1-yl)-5-oxo-pentyl]-trimethyl-ammonium]	3 days	55%	No further significant increase in inhibitory effect	lasted for over a week	–	–	–
NC(N)=NCCC[C@@H](N)C(=O)N[C@@H](CCCN=C(N)N)C(=O)N1CCC[C@H]1C(=O)N1C[C@H](O)C[C@H]1C(=O)NCC(=O)N[C@@H](Cc1cccs1)C(=O)N[C@@H](CO)C(=O)N1Cc2ccccc2C[C@@H]1C(=O)N1[C@H](C(=O)N[C@@H](CCCN=C(N)N)C(=O)O)C[C@@H]2CCCC[C@@H]21 [icatibant, H-D-Arg-Arg-Pro-Hyp-Gly-Thi-Ser-D-Tic-Oic-Arg-OH]	3 days	40%	No further significant increase in inhibitory effect	lasted for over a week	up to 3 months	negligible or no side effects	reduced the intensity of pain in the knee to a greater extent than the placebo
